Data on 27 compounds can be found in patent publication US20250129027A1 (APOGEE PHARMACEUTICALS, INC., priority 2023, published 2025).

Some results are limits rather than exact numbers.

The target in assay [1] is human recombinant FAAH (Homo sapiens (Human), UniProt O00519). In words: In vitro inhibition of FAAH activity (fluorescent inhibitor screening kit, AMC arachidonoyl amide). It counts as biochemical. The settings on record: human recombinant FAAH; read-out: Inhibition on FAAH activity (IC50). The text has this:
The inhibitory effect of compounds of Formula (I-IV) on the activity of human recombinant FAAH was studied using a commercial inhibitor screening kit (Cayman Chemicals, Godlewski et al., 2010 [19]). In brief, FAAH hydrolyzes AMC arachidonoyl amide resulting in the release of the fluorescent product, while the inhibitor will inhibit the FAAH activity and thus reduce the fluorescent signal. The resulting fluorophore can be analyzed using an excitation wavelength of 340-360 nm and an emission wavelength of 450-465 nm by a plate reader (Synergy H1, Biotek). Inhibition is calculated as a percentage of the treated sample over the non-treated control based on the signal values, and where possible, a range of concentrations of compounds was tested to find the IC50 values (i.e. the concentration of compound that inhibited 50% FAAH activity).

Assay [2] deals with human recombinant MAGL (Homo sapiens (Human), UniProt Q99685). Description: In vitro inhibition of MAGL activity (inhibitor screening kit, 4-nitrophenylacetate). Format: biochemical. The settings on record: human recombinant MAGL. The procedure: The inhibitory effect of the compounds on activity of human recombinant MAGL was also studied using a commercial inhibitor screening kit (Cayman Chemicals). In brief, MAGL hydrolyzes 4-nitrophenylacetate resulting in a yellow product, 4-nitrophenol with an absorbance at 405-412 nm, while the inhibitor will inhibit the MAGL activity and thus reduce the yellow signal. The absorbance of the yellow product can be analyzed using the plate reader. Inhibition is calculated as a percentage of the treated sample over the non-treated MAGL control based on the signal values.
Chain of human recombinant MAGL (Q99685 whole entry): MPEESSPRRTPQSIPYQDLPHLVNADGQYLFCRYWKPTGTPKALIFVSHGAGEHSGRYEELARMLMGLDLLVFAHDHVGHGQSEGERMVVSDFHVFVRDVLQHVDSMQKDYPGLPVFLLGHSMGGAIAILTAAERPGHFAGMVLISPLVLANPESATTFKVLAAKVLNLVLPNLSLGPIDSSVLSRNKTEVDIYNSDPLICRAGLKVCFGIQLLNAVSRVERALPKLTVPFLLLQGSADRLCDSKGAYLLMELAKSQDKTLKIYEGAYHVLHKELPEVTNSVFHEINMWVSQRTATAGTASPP

Chain of human recombinant FAAH (O00519 whole entry): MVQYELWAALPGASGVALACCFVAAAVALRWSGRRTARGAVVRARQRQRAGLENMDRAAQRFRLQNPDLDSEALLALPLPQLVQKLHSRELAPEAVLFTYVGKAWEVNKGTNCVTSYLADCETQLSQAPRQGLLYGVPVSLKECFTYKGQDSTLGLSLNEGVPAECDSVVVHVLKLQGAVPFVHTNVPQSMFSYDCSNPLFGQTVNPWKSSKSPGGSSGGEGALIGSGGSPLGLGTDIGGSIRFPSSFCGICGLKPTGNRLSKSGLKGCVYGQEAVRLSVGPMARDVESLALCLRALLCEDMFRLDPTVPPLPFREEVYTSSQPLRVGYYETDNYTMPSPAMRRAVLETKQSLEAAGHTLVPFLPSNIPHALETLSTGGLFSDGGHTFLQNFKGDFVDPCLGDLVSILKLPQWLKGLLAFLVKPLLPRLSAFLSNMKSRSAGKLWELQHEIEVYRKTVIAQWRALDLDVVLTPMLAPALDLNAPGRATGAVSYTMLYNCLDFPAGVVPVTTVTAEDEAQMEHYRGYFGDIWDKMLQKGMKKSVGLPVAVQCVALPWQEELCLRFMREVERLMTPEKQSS

For the compound `O=C(NC1CCCCC1)Oc1cc(O)cc(-c2cncc(-c3nnco3)c2)c1` [Example 164, 3-(5-(1,3,4-oxadiazol-2-yl)pyridin-3-yl)-5-hydroxyphenyl cyclohexylcarbamate], the IC50 in assay [1] was 0.01 to 0.1 µM; in assay [2], over 50 µM.
For `O=C(NC1CC2(CCC2)C1)Oc1cccc(-c2cncc(-c3nnco3)c2)c1` [Example 147, 3-(5-(1,3,4-oxadiazol-2-yl)pyridin-3-yl)phenyl spiro[3.3]heptan-2-ylcarbamate], the IC50 in assay [1] is 0.01 to 0.1 µM; in assay [2] it was over 10 µM.
For `O=C(NC1CCCCC1)Oc1ccc(O)c(-c2cncc(-c3nnn[nH]3)c2)c1` [Example 248, 3-(5-(1H-tetrazol-5-yl)pyridin-3-yl)-4-hydroxyphenyl cyclohexylcarbamate], the IC50 is over 1 µM in assay [1] and over 10 µM in assay [2].
For `O=C(NC1CCCCCC1)Oc1ccc(OC(F)(F)F)c(-c2cncc(-c3nnco3)c2)c1` [Example 202, 3-(5-(1,3,4-oxadiazol-2-yl)pyridin-3-yl)-4-(trifluoromethoxy)phenyl cycloheptylcarbamate], in that order: 0.1 to 1 µM and over 10 µM.
With `O=Cc1cncc(-c2cccc(OC(=O)NC3CCCCCC3)c2)c1` [Example 20, 3-(5-formylpyridin-3-yl)phenyl cyclohepylcarbamate], the IC50 in assay [1] was 0.1 to 1 µM; in assay [2], over 10 µM.
For `O=C(Oc1cccc(-c2cncc(-c3nnco3)c2)c1)N1CCCCCC1` [Example 145, 3-(5-(1,3,4-oxadiazol-2-yl)pyridin-3-yl)phenyl azepane-1-carboxylate], in that order: over 1 µM and over 10 µM.
For `O=C(NC1CCCCCC1)Oc1cccc(-c2cncc(-c3ccco3)c2)c1` [Example 52, 3-(5-(furan-2-yl)pyridin-3-yl)phenyl cycloheptylcarbamate], in that order: 0.01 to 0.1 µM and about 10 µM.
For `CCCCCCCNC(=O)Oc1cccc(-c2cncc(C=O)c2)c1` [Example 15, 3-(5-formylpyridin-3-yl)phenyl heptylcarbamate], the IC50 lay within 0.01 to 0.1 µM in assay [1] and 10 to 50 µM in assay [2].
In the same order, the values of `O=C(NCc1ccccc1)Oc1cccc(-c2cncc(-c3nncs3)c2)c1` [Example 209, 3-(5-(1,3,4-thiadiazol-2-yl)pyridin-3-yl)phenyl benzylcarbamate] are about 0.1 µM and over 10 µM.
In the case of `CCCCCCCCNC(=O)Oc1cccc(-c2cncc(C=O)c2)c1` [Example 16, 3-(5-formylpyridin-3-yl)phenyl octylcarbamate], the IC50 lay in the range of 0.01 to 0.1 µM in assay [1] and 1 to 10 µM in assay [2].
For `O=C(NC1CCCCCC1)Oc1cccc(-c2cc(-c3nnco3)ccn2)c1` [Example 262, 3-(4-(1,3,4-oxadiazol-2-yl)pyridin-2-yl)phenyl cycloheptylcarbamate], in that order: 0.01 to 0.1 µM and over 1 µM.
`CSc1ccc(OC(=O)NC2CCCCC2)cc1-c1cncc(-c2nnco2)c1` [Example 190, 3-(5-(1,3,4-oxadiazol-2-yl)pyridin-3-yl)-4-(methylthio)phenyl cyclohexylcarbamate]: the figures for the IC50 in assay [1] and in assay [2] were 0.1 to 1 µM and over 10 µM, respectively.
Consider `COc1ccc(OC(=O)NC2CCCC2)cc1-c1cncc(-c2nccs2)c1` [Example 124, 4-methoxy-3-(5-(thiazol-2-yl)pyridin-3-yl)phenyl cyclopentylcarbamate], for which the results for the IC50 in assay [1] and in assay [2] were 0.1 to 1 µM and over 10 µM, respectively.
In the case of `O=C(NCc1ccc2ccccc2c1)Oc1cccc(-c2cncc(-c3ncn[nH]3)c2)c1` [Example 222, 3-(5-(1H-1,2,4-triazol-5-yl)pyridin-3-yl)phenyl (naphthalen-2-ylmethyl)carbamate], the IC50 is 0.01 to 0.1 µM in assay [1] and about 10 µM in assay [2].
For the compound `CCCCCCCCNC(=O)Oc1ccc(N(C)C)c(-c2cncc(-c3nnco3)c2)c1` [Example 180, 3-(5-(1,3,4-oxadiazol-2-yl)pyridin-3-yl)-4-(dimethylamino)phenyl octylcarbamate], the IC50 in assay [1] is 0.01 to 0.1 µM; in assay [2], over 10 µM.
As to `COc1ccc(OC(=O)NC2CCCCCC2)cc1-c1cncc(-c2nccs2)c1` [Example 126, 4-methoxy-3-(5-(thiazol-2-yl)pyridin-3-yl)phenyl cycloheptylcarbamate], the IC50 was 0.1 to 1 µM in assay [1] and over 10 µM in assay [2].
With `O=C(NC1CCCCC1)Oc1cccc(-c2cncc(-c3ncn[nH]3)c2)c1` [Example 224, 3-(5-(1H-1,2,4-triazol-5-yl)pyridin-3-yl)phenyl cyclohexylcarbamate], the IC50 in assay [1] was 0.1 to 1 µM; in assay [2], over 10 µM.
In the case of `O=C(Oc1cccc(-c2cncc(-c3nnco3)c2)c1)N1CC2CC2C1` (stereo not drawn) [Example 148, 3-(5-(1,3,4-oxadiazol-2-yl)pyridin-3-yl)phenyl 3-azabicyclo[3.1.0]hexane-3-carboxylate], the figures for the IC50 in assay [1] and in assay [2] were over 1 µM and over 10 µM, respectively.
Regarding `COC(=O)c1cncc(-c2cccc(OC(=O)NC34CC5CC(CC(C5)C3)C4)c2)c1` [Example 13, methyl 5-(3-((((1s,3s)-adamantan-1-yl)carbamoyl)oxy)phenyl)nicotinate], the figures for the IC50 in assay [1] and in assay [2] were over 1 µM and over 10 µM, respectively.
In the same order, the values of `COc1ccc(OC(=O)NCc2ccccc2)cc1-c1cncc(-c2ccc[nH]2)c1` [Example 43, 3-(5-(1H-pyrrol-2-yl)pyridin-3-yl)-4-methoxyphenyl benzylcarbamate] are over 1 µM and over 10 µM.
Regarding `O=C(NC1CCCCCC1)Oc1cccc(-c2cncc(-c3ccc[nH]3)c2)c1` [Example 40, 3-(5-(1H-pyrrol-2-yl)pyridin-3-yl)phenyl cycloheptylcarbamate], the IC50 in assay [1] is 0.01 to 0.1 µM; in assay [2] it was about 10 µM.
In the case of `O=C(Oc1cccc(-c2cncc(-c3nnco3)c2)c1)N1CCCCC1` [Example 141, 3-(5-(1,3,4-oxadiazol-2-yl)pyridin-3-yl)phenyl piperidine-1-carboxylate], the IC50 in assay [1] is about 1 µM; in assay [2], over 10 µM.
Turning to `O=C(NCC1CCCCC1)Oc1cccc(-c2cncc(-c3ccco3)c2)c1` [Example 48, 3-(5-(furan-2-yl)pyridin-3-yl)phenyl (cyclohexylmethyl)carbamate], the IC50 in assay [1] is 0.01 to 0.1 µM; in assay [2], about 10 µM.
On to `Cc1cc(OC(=O)NC2CCC(C)CC2)cc(-c2cncc(-c3ncco3)c2)c1` (stereo not drawn) [Example 102, 3-methyl-5-(5-(oxazol-2-yl)pyridin-3-yl)phenyl (4-methylcyclohexyl)carbamate], for which the IC50 is over 1 µM in assay [1] and over 10 µM in assay [2].
As for `O=C(NCc1ccccc1)Oc1cc(O)cc(-c2cncc(-c3nnco3)c2)c1` [Example 162, 3-(5-(1,3,4-oxadiazol-2-yl)pyridin-3-yl)-5-hydroxyphenyl benzylcarbamate], the values for the IC50 in assay [1] and in assay [2] were about 0.1 µM and over 10 µM, respectively.
In the same order, the values of `COc1ccc(OC(=O)NC2CCCCC2)cc1-c1cncc(-c2nccs2)c1` [Example 125, 4-methoxy-3-(5-(thiazol-2-yl)pyridin-3-yl)phenyl cyclohexylcarbamate] are 0.1 to 1 µM and over 10 µM.
For `CCOC(=O)c1cncc(-c2cccc(OC(=O)Nc3ccc(F)cc3)c2)c1` [Example 7, ethyl 5-(3-(((4-fluorophenyl)carbamoyl)oxy)phenyl)nicotinate], in that order: over 1 µM and over 10 µM.
